Common to all, as to assay type: physicochemical
Data set [1] is described as follows: Evaluation of maximum absorption wavelength, half-width and absorbance ratio (liquid absorption spectrum). As to conditions: 2.5×10^−6 mol/L, optical path length 10 mm. Here is the method:
—Evaluation of Maximum Absorption Wavelength, Half-Width, and Absorbance Ratio—Respective compounds were dissolved in measuring solvents (concentration: 2.5×10^−6 mol/L) described in the table below so as to measure an absorption spectrum (Optical path length: 10 mm).
Maximum absorption wavelengths (λmax) of absorption spectrums, half-widths of the maximum absorption wavelengths, and absorbance ratios (550 nm/λmax) which are values obtained by dividing absorbance at a wavelength of […] by absorbance at the maximum absorption wavelength with respect to respective compounds are presented in Table 1 below. FIG. 3 illustrates an absorption spectrum of the compound D-1 in chloroform.

The nature of data set [2]: Heat resistance of near infrared ray absorption filter (ΔEab before/after heating). As to conditions: filter 1.0 μm, 7.5 mass % compound; 260° C. for 30 minutes on hot plate; ΔEab class. As to the method: (§1) Compositions below were mixed so as to prepare the composition. A solid content of the composition is 31 mass % and a content of the near infrared ray absorption substance with respect to the total solid content of the composition was 7.5 mass %.
(§2) Glass substrates (1737 manufactured by Corning Incorporated) were coated with respective compositions by using a spin coater such that film thicknesses after drying become 1.0 μm, and a heating treatment (prebaking) was performed for 120 seconds by using a hot plate of 100° C.
(§3) Subsequently, beta exposure was performed by 500 mJ/cm^2 by using an i-ray stepper exposure device FPA-3000i5+ (manufactured by Canon Inc.). Subsequently, puddle development was performed at 23° C. for 60 seconds by using CD-2060 (manufactured by Fujifilm Electronic Materials), a rinse treatment was performed with pure water on a glass substrate on which a beta coloration layer was formed, and spray drying was performed.
(§4) The heating treatment (post baking) was performed for 300 seconds by using a hot plate of 200° C., so as to obtain a near infrared ray absorption filter.
After the near infrared ray absorption filter was heated to 260° C. for 30 minutes by a hot plate, the ΔEab value of a color difference before and after heat resistance test was measured using a color meter MCPD-1000 (manufactured by Otsuka Electronics Co., Ltd.), so as to evaluate a criterion below. A smaller ΔEab value indicates more satisfactory heat resistance.

Data set [3] in a line: Light fastness of near infrared ray absorption filter (ΔEab before/after xenon lamp). The following applies: filter 1.0 μm, 7.5 mass % compound; xenon lamp 50,000 lux for 20 hours; ΔEab class. Here is the method:
as §1, §2, §3, §4
After the near infrared ray absorption filter was irradiated with a xenon lamp was applied by 50,000 lux for 20 hours (corresponding to 1,000,000 lux·h), an ΔEab value of a color difference before and after a light-fast test was measured. A smaller ΔEab value indicates more satisfactory light fastness.
The ΔEab value is a value obtained from a color difference equation below according to a CIE 1976 (L*, a*, b*) space color system (Handbook of Color Science, New Edition, edited by the Color Science Association of Japan, (1985), p. 266). ΔEab={(ΔL*)^2[…](Δa*)^2+(Δb*)^2}^1/2

Data set [4] is described as follows: Solubility of the compound to propylene glycol monomethyl ether acetate. As to conditions: visually observed. An excerpt:
Solubility of the compound to propylene glycol monomethyl ether acetate was visually observed.

Data set [5] in a line: Evaluation of maximum absorption wavelength, half-width and absorbance ratio (liquid absorption spectrum). As to conditions: 2.5×10^−6 mol/L, optical path length 10 mm. This is another data set of the same source.
[6] abbreviates: measuring solvent ethyl acetate.
Where [7] appears, read: measuring solvent tetrahydrofuran.

The text below walks through data of patent US10273251B2, “Composition, cured film, near infrared ray absorption filter, solid-state imaging device, infrared sensor, and compound” (FUJIFILM Corporation, priority 2014, dated 2019).

In the case of `CCCCCCCCCCC(CCCCCCCC)COc1cccc(-c2c3/c(=C(\C#N)c4cnc5cc(Cl)c(Cl)cc5n4)n(B(c4ccccc4)c4ccccc4)c(-c4cccc(OCC(CCCCCCCC)CCCCCCCCCC)c4)c3/c(=C(\C#N)c3cnc4cc(Cl)c(Cl)cc4n3)n2B(c2ccccc2)c2ccccc2)c1` [Compound D-31], in data set [1] (measuring solvent chloroform), the Half-width was 28 nm and the Maximum absorption wavelength was determined as 884 nm. For the same compound, the Heat resistance in data set [2] is listed as 5 (ΔEab value<3). In addition, the Light fastness in data set [3] is 5 (ΔEab value<3). Further, in data set [4], the Solubility result is listed as “A (Solubility 2% or greater)”. In addition, in data set [5] (measuring solvent chloroform), the “Absorbance ratio (550 nm/λmax)” value stood at 0.01.
As for `CCCCCCCCCCC(CCCCCCCC)COc1cccc(-c2c3/c(=C(\C#N)c4cnc5ccccc5n4)n(B(c4ccccc4)c4ccccc4)c(-c4cccc(OCC(CCCCCCCC)CCCCCCCCCC)c4)c3/c(=C(\C#N)c3cnc4ccccc4n3)n2B(c2ccccc2)c2ccccc2)c1` [Compound D-29], in data set [1] (measuring solvent chloroform), the Half-width turned out to be 28 nm and the Maximum absorption wavelength was 862 nm. Further, the Heat resistance in data set [2] is 5 (ΔEab value<3). The Light fastness in data set [3] is given as 5 (ΔEab value<3). Further, the Solubility result in data set [4] is on record as “A (Solubility 2% or greater)”. Besides, the “Absorbance ratio (550 nm/λmax)” value in data set [5] (measuring solvent chloroform) amounted to 0.006.
With `CCCCCCCCC(CCCCCCCC)COc1cccc(-c2c3/c(=C(\C#N)c4cnc5cc(C)ccc5n4)n(B(c4ccccc4)c4ccccc4)c(-c4cccc(OCC(CCCCCCCC)CCCCCCCC)c4)c3/c(=C(\C#N)c3cnc4cc(C)ccc4n3)n2B(c2ccccc2)c2ccccc2)c1` [Compound D-8], in data set [1] (measuring solvent chloroform), the Half-width is 31 nm and the Maximum absorption wavelength is recorded as 866 nm. Also, the Heat resistance in data set [2] is listed as 5 (ΔEab value<3). Moreover, the Light fastness in data set [3] is recorded as 5 (ΔEab value<3). Also, the Solubility result in data set [4] is reported as “A (Solubility 2% or greater)”. In addition, the “Absorbance ratio (550 nm/λmax)” value in data set [5] (measuring solvent chloroform) was 0.01.
On to `CCCCCCCCC(CCCCCC)COc1cccc(-c2c3/c(=C(\C#N)c4cnc5cc(Cl)c(Cl)cc5n4)n(B(c4ccccc4)c4ccccc4)c(-c4cccc(OCC(CCCCCC)CCCCCCCC)c4)c3/c(=C(\C#N)c3cnc4cc(Cl)c(Cl)cc4n3)n2B(c2ccccc2)c2ccccc2)c1` [Compound D-1], for which the Half-width in data set [1] (measuring solvent chloroform) is reported as 29 nm; in data set [1] (setting [6]), 30 nm; in data set [1] (setting [7]) it was 29 nm. The values for the Maximum absorption wavelength in data set [1] (measuring solvent chloroform), in data set [1] (setting [6]) and in data set [1] (setting [7]) were 884 nm, 880 nm and 884 nm, respectively. The Heat resistance in data set [2] is 5 (ΔEab value<3). Moreover, in data set [3], the Light fastness was 5 (ΔEab value<3). In addition, in data set [4], the Solubility entry was “A (Solubility 2% or greater)”. Moreover, the “Absorbance ratio (550 nm/λmax)” value in data set [5] (measuring solvent chloroform) is listed as 0.011; in data set [5] (setting [6]) it was 0.011; in data set [5] (setting [7]), 0.01.
Turning to `CCCCCCCCC(CCCCCC)COc1ccc(-c2c3/c(=C(\C#N)c4cnc5cc(Cl)c(Cl)cc5n4)n(B(c4ccccc4)c4ccccc4)c(-c4ccc(OCC(CCCCCC)CCCCCCCC)cc4)c3/c(=C(\C#N)c3cnc4cc(Cl)c(Cl)cc4n3)n2B(c2ccccc2)c2ccccc2)cc1` (stereo not drawn) [Compound E-1, reference compound], in data set [1] (measuring solvent chloroform), the Half-width was 31 nm and the Maximum absorption wavelength was 884 nm. Also, in data set [2], the Heat resistance is on record as 5 (ΔEab value<3). Moreover, in data set [3], the Light fastness is given as 5 (ΔEab value<3). For the same compound, the Solubility result in data set [4] is “C (Solubility less than 0.5%)”. In addition, in data set [5] (measuring solvent chloroform), the “Absorbance ratio (550 nm/λmax)” value worked out at 0.019.
Turning to `COc1ccc2oc(/C(C#N)=c3/c4c(-c5cccc(OCC(CCC(C)CC(C)(C)C)C(C)CC(C)(C)C)c5)n(B(c5ccccc5)c5ccccc5)/c(=C(/C#N)c5nc6cc(C)ccc6o5)c4c(-c4cccc(OCC(CCC(C)CC(C)(C)C)C(C)CC(C)(C)C)c4)n3B(c3ccccc3)c3ccccc3)nc2c1` [Compound D-43], in data set [1] (measuring solvent chloroform), the Half-width came out at 30 nm and the Maximum absorption wavelength is on record as 748 nm. Further, in data set [2], the Heat resistance is 5 (ΔEab value<3). The Light fastness in data set [3] was 5 (ΔEab value<3). In data set [4], the Solubility entry is on record as “A (Solubility 2% or greater)”. In data set [5] (measuring solvent chloroform), the “Absorbance ratio (550 nm/λmax)” value is 0.003.
As to `COCCOCCOc1cccc(-c2c3/c(=C(\C#N)c4cnc5cc(Cl)c(Cl)cc5n4)n(B(c4ccccc4)c4ccccc4)c(-c4cccc(OCCOCCOC)c4)c3/c(=C(\C#N)c3cnc4cc(Cl)c(Cl)cc4n3)n2B(c2ccccc2)c2ccccc2)c1` [Compound D-4], in data set [1] (measuring solvent chloroform), the Half-width was 29 nm and the Maximum absorption wavelength is 883 nm. Moreover, in data set [2], the Heat resistance was 4 (3≤ΔEab value<5). Further, in data set [3], the Light fastness is reported as 5 (ΔEab value<3). Also, the Solubility entry in data set [4] is “B (Solubility 0.5% or greater and less than 2%)”. Also, the “Absorbance ratio (550 nm/λmax)” value in data set [5] (measuring solvent chloroform) came out at 0.012.
`CCCCC(CC)COc1cccc(-c2c3/c(=C(\C#N)c4ccc5ccccc5n4)n(B(c4ccccc4)c4ccccc4)c(-c4cccc(OCC(CC)CCCC)c4)c3/c(=C(\C#N)c3ccc4ccccc4n3)n2B(c2ccccc2)c2ccccc2)c1` [Compound D-10]: in data set [1] (measuring solvent chloroform), the Half-width is 30 nm and the Maximum absorption wavelength was 814 nm. In addition, the Heat resistance in data set [2] is listed as 5 (ΔEab value<3). The Light fastness in data set [3] is listed as 5 (ΔEab value<3). The Solubility result in data set [4] is reported as “A (Solubility 2% or greater)”. Also, the “Absorbance ratio (550 nm/λmax)” value in data set [5] (measuring solvent chloroform) is reported as 0.01.
For the compound `CCC(C)COc1cccc(-c2c3/c(=C(\C#N)c4cnc5ccccc5n4)n(B(c4ccccc4)c4ccccc4)c(-c4cccc(OCC(C)CC)c4)c3/c(=C(\C#N)c3cnc4ccccc4n3)n2B(c2ccccc2)c2ccccc2)c1` [Compound D-7], in data set [1] (measuring solvent chloroform), the Half-width came out at 29 nm and the Maximum absorption wavelength is on record as 863 nm. The Heat resistance in data set [2] is 5 (ΔEab value<3). Also, in data set [3], the Light fastness is on record as 5 (ΔEab value<3). The Solubility result in data set [4] was “A (Solubility 2% or greater)”. Moreover, the “Absorbance ratio (550 nm/λmax)” value in data set [5] (measuring solvent chloroform) is 0.013.
In the case of `CC(CCC(COc1cccc(-c2c3/c(=C(\C#N)c4cnc5ccccc5n4)n(B(c4ccccc4)c4ccccc4)c(-c4cccc(OCC(CCC(C)CC(C)(C)C)C(C)CC(C)(C)C)c4)c3/c(=C(\C#N)c3cnc4ccccc4n3)n2B(c2ccccc2)c2ccccc2)c1)C(C)CC(C)(C)C)CC(C)(C)C` [Compound D-28], in data set [1] (measuring solvent chloroform), the Half-width is given as 29 nm and the Maximum absorption wavelength came out at 863 nm. The Heat resistance in data set [2] is listed as 5 (ΔEab value<3). Moreover, the Light fastness in data set [3] is recorded as 5 (ΔEab value<3). In addition, the Solubility entry in data set [4] was “A (Solubility 2% or greater)”. Also, the “Absorbance ratio (550 nm/λmax)” value in data set [5] (measuring solvent chloroform) was 0.006.
Consider `CC(CCC(COc1cccc(-c2c3/c(=C(\C#N)c4cnc5cc(Cl)c(Cl)cc5n4)n(B(c4ccccc4)c4ccccc4)c(-c4cccc(OCC(CCC(C)CC(C)(C)C)C(C)CC(C)(C)C)c4)c3/c(=C(\C#N)c3cnc4cc(Cl)c(Cl)cc4n3)n2B(c2ccccc2)c2ccccc2)c1)C(C)CC(C)(C)C)CC(C)(C)C` [Compound D-32], for which, in data set [1] (measuring solvent chloroform), the Half-width is 28 nm and the Maximum absorption wavelength was found to be 884 nm. Also, the Heat resistance in data set [2] is recorded as 5 (ΔEab value<3). Also, in data set [3], the Light fastness is listed as 5 (ΔEab value<3). Also, the Solubility result in data set [4] is “A (Solubility 2% or greater)”. In addition, in data set [5] (measuring solvent chloroform), the “Absorbance ratio (550 nm/λmax)” value turned out to be 0.01.
As for `CCCCCCCCCCCCCCCCCCOc1cccc(-c2c3/c(=C(\C#N)c4nc5ccccc5s4)n(B(c4ccccc4)c4ccccc4)c(-c4cccc(OCCCCCCCCCCCCCCCCCC)c4)c3/c(=C(\C#N)c3nc4ccccc4s3)n2B(c2ccccc2)c2ccccc2)c1` [Compound D-11], in data set [1] (measuring solvent chloroform), the Half-width came to 30 nm and the Maximum absorption wavelength is reported as 779 nm. For the same compound, the Heat resistance in data set [2] was 5 (ΔEab value<3). The Light fastness in data set [3] is given as 5 (ΔEab value<3). The Solubility entry in data set [4] was “B (Solubility 0.5% or greater and less than 2%)”. Moreover, the “Absorbance ratio (550 nm/λmax)” value in data set [5] (measuring solvent chloroform) was determined as 0.009.
